The subject of assay [1] is neuronal-type nicotinic receptors. The conditions noted are these: cited from earlier work.
The test system is the same in assay [2]. It counts as cell-based, bovine.

SMILES strings stand for the structures. “And” between values parts separate entries of the source, which are not always exact repeats. Identical values can stand only once.

With `C[C@@H]1NC(=O)[C@@H]2CSC3(SC[C@@H](C(N)=O)NC(=O)[C@H](CCCNC(=N)N)NC(=O)[C@H](Cc4cc5ccccc5[nH]4)NC1=O)SC[C@H](NC(=O)CN)C(=O)N[C@@H](CS3)C(=O)N[C@@H](CO)C(=O)N[C@@H](CC(=O)O)C(=O)N1CCCC1C(=O)N[C@@H](CCCNC(=N)N)C(=O)N2` (stereo partly drawn) [Ctx ImI, α-conotoxin ImI], the “effect on nicotine-stimulated release of adrenaline and noradrenaline (in words)” value in assay [1] is on record as “inhibit the nicotine-stimulated release”.
On to `C[C@@H]1NC(=O)[C@@H]2CCCC[C@H](NC(=O)CN)C(=O)N[C@@H](CSSC[C@@H](C(N)=O)NC(=O)[C@H](CCCNC(=N)N)NC(=O)[C@H](Cc3cc4ccccc4[nH]3)NC1=O)C(=O)N[C@@H](CO)C(=O)N[C@@H](CC(=O)O)C(=O)N1CCCC1C(=O)N[C@@H](CCCNC(=N)N)C(=O)N2` (stereo partly drawn) [compound 118, [2,8]-Dicarba-[3,12]-Cystino Conotoxin ImI: NH2-Gly-c[Hag-Cys-Ser-Asp-Pro-Arg-Hag]-Ala-Trp-Arg-Cys)-NH2], for which, in assay [2], the “Adrenaline Release 1st” value is 2.94% and 2.55%; the “Adrenaline Release 2nd” value was 4.40% and 3.63%; the “Adrenaline Release 3rd” value is 4.46% and 2.62%; the “Adrenaline Release 4th” value was 4.09% and 3.31%. For the same compound, in assay [2], the “Adrenaline Release % control” value was 88.260% and 65.306%; the “Adrenaline Release mean” value was 3.97% and 3.03%; the “Noradrenaline Release 1st” value was 4.52% and 4.19%; the “Noradrenaline Release 2nd” value is 6.29% and 5.86%. Moreover, in assay [2], the “Noradrenaline Release 3rd” value is 7.00% and 4.32%; the “Noradrenaline Release 4th” value was 7.34% and 5.51%; the “Noradrenaline Release % control” value was 90.859% and 69.384%; the “Noradrenaline Release mean” value is 6.29% and 4.97%.
